Results from PubChem BioAssay (NCI).
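Values below derive from 48-hour exposures of cells grown in 96-well plates, with endpoints linearly interpolated between the two concentrations bracketing the appropriate inhibition level. TGI marks complete inhibition of growth.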

How the values were obtained:
Assay in all cases: DTP human tumour cell line panel, 48 h
OVCAR-5 ovarian = test system: OVCAR-5 ovarian
UO-31 renal = test system: UO-31 renal
RXF 393 renal = test system: RXF 393 renal
SK-MEL-5 melanoma = test system: SK-MEL-5 melanoma
SK-MEL-2 melanoma = test system: SK-MEL-2 melanoma
T-47D breast = test system: T-47D breast
SR leukemia = test system: SR leukemia
MDA-N = test system: MDA-N
SNB-19 CNS = test system: SNB-19 CNS
UACC-257 melanoma = test system: UACC-257 melanoma
SNB-75 CNS = test system: SNB-75 CNS
HOP-62 NSCLC = test system: HOP-62 NSCLC
CCRF-CEM leukemia = test system: CCRF-CEM leukemia
SW-620 colon = test system: SW-620 colon
TK-10 renal = test system: TK-10 renal
LOX IMVI melanoma = test system: LOX IMVI melanoma
NCI-H23 lung = test system: NCI-H23 lung
HCC-2998 colon = test system: HCC-2998 colon
NCI/ADR-RES ovarian = test system: NCI/ADR-RES ovarian

Compound	TGI (OVCAR-5 ovarian) [µM]	TGI (UO-31 renal) [µM]	TGI (RXF 393 renal) [µM]	TGI (SK-MEL-5 melanoma) [µM]	TGI (SK-MEL-2 melanoma) [µM]	TGI (T-47D breast) [µM]	TGI (SR leukemia) [µM]	TGI (MDA-N) [µM]	TGI (SNB-19 CNS) [µM]	TGI (UACC-257 melanoma) [µM]	TGI (SNB-75 CNS) [µM]	TGI (HOP-62 NSCLC) [µM]	TGI (CCRF-CEM leukemia) [µM]	TGI (SW-620 colon) [µM]	TGI (TK-10 renal) [µM]	TGI (LOX IMVI melanoma) [µM]	TGI (NCI-H23 lung) [µM]	TGI (HCC-2998 colon) [µM]	TGI (NCI/ADR-RES ovarian) [µM]
C=C1C(=O)O[C@H]2[C@H]3O[C@@H](C[C@@H]12)[C@](C)(O)CCCC(C)=CCC[C@H]3C	31.1	23.5	20.3	31.1	28.7	44.6	> 100	75.8	32.4	22.7	22.3	31.3	3.24	23	14.6	48.2	35.3	23.6	22.7
COc1cc(CNC(=O)CCCCCCCCCCSSCCCCCCCCCCC(=O)NCc2ccc(O)c(OC)c2)ccc1O	> 10		> 10	> 10	> 10	> 10	> 10	> 10	> 10	> 10	> 10	> 10	> 10	> 10	> 10	> 10	> 10	> 10	> 10
Clc1ccc(N=Cc2cc3cc(Br)ccc3nc2Cl)cc1	> 50	> 50	> 50	45.2	48.3	> 50	42.2	> 50		> 50	> 50		32.5	> 50		> 50	> 50	> 50	> 50
COc1cc(C2c3cc4c(cc3OC(O)C2C)OCO4)cc(OC)c1O (stereo unspecified)	> 100	> 96.5	> 43	> 51.6	> 100	> 68.6	> 100	5.06	> 46.4	> 100	26	98.9	> 100	> 100	57.4	> 100	> 100	49.5	23.4
Cc1ccc2nc(Cl)c(/C=N/N3C(=O)/C(=C/Cc4ccco4)N=C3c3ccccc3)cc2c1	> 100	> 74.7	> 100	> 100	> 100	> 100	> 100	39.6	> 90.9	71.8	> 92.8	> 100	> 100	> 100	55.5	> 69.3	> 84.5	75.8	> 90.5
Cc1nn(C(=O)c2ccncc2)c2c1C(c1ccccc1O)SC(N)=N2 (stereo unspecified)	> 10		> 10	> 10	> 10	> 10	> 10	> 10	> 10	> 10	> 10	> 10	> 10	> 10	> 10	> 10	> 10	> 10	> 10
COc1cc2c(cc1OC)C(=O)/C(=C/c1ccccc1)C2	> 100	> 100	> 100	> 84.1	> 100	> 100	> 100	> 100	> 100	> 100	98.1	> 100	99.4	> 100	> 100	> 100	> 100	> 100	> 100
Cc1c(C)c2ccc(O)cc2[nH]c1=O	> 100	> 100	> 100	> 100	> 100	> 100	> 100	> 100	> 100	> 100	> 100	> 100	> 100	> 100		> 100	> 100	> 100	> 100
CCOC(=O)C1C(=O)CC(C)(O)C(C(=O)OCC)C1c1ccc(OC)cc1 (stereo unspecified)	> 100	> 100	> 100	> 100	> 100	> 100	> 100	> 100	> 100	> 100	> 100	> 100	> 100	> 100	> 100	> 100	> 100	> 100	> 100
c1ccc(-c2cc(-c3cc(-c4ccccc4)no3)on2)cc1	> 100	> 100	> 100	> 100	> 100	> 100	31.3	> 100	> 100	> 100		> 100	78.8	> 100	> 100	> 100	> 100	> 100	> 100
Cc1ccc(OCCn2cc(Nc3ccccc3)c(=O)[nH]c2=O)cc1	> 100	> 100	> 100	> 100	> 100	> 100	> 100	> 100	> 100	> 100	> 100		> 100	> 100	> 100	> 100	> 100	> 100	> 100
CCC(CCCCC1CC[C@H]2CC(=O)C[C@@H]12)OC (stereo partly specified)	> 100		> 100	> 100	> 100	> 100	> 100	> 100	> 100	> 100	> 100	> 100	> 100	> 100	> 100	> 100	> 100	> 100	> 100
CC(C)(Cc1ccccc1)Cc1cc(O)ccc1O	88.8	26.3	28.9			23.1	27.7	56.6	48.7	29.5	68.1	64.3	36.7	49.6	95.9	26.8	38.7	39.1	42.9
